From ChEMBL document CHEMBL5226387, “A Drimane Meroterpenoid Borate as a Synchronous Ca+ Oscillation Inhibitor from the Coral-Associated Fungus Alternaria sp. ZH-15” (J Nat Prod, 2023)

Key:
Assay type in all cases: functional, cell-based
[1] = Neuroprotective activity in C57BL/6J mouse primary neocortical neurons assessed as inhibition of 4-AP-induced spontaneous Ca2+ oscillation frequency treated with compound 15 mins prior to 4-AP challenge and measured after 10 mins by Fluo-4 dye based fluorescence analysis; conditions: Primary neocortical neuron
[2] = Neuroprotective activity in C57BL/6J mouse primary neocortical neurons assessed as inhibition of 4-AP-induced spontaneous Ca2+ oscillation amplitude treated with compound 15 mins prior to 4-AP challenge and measured after 10 mins by Fluo-4 dye based fluorescence analysis; conditions: Primary neocortical neuron
[3] = Neuroprotective activity in C57BL/6J mouse primary neocortical neurons assessed as inhibition of spontaneous Ca2+ oscillation frequency measured for 15 mins by Fluo-4 dye based fluorescence analysis; conditions: Primary neocortical neuron, 0.25 h
[4] = Neuroprotective activity in C57BL/6J mouse primary neocortical neurons assessed as inhibition of spontaneous Ca2+ oscillation amplitude measured for 15 mins by Fluo-4 dye based fluorescence analysis; conditions: Primary neocortical neuron, 0.25 h

SMILES | IC50 [1] | IC50 [2] | IC50 [3] | IC50 [4]
COc1cc(-c2cc3c(c(=O)o2)C[C@@]24OB(O)O[C@]5(CC[C@@]2(C)O3)C(C)(C)C=CC(=O)[C@]45C)cc(OC)c1OC | 12 µM | 34 µM | 15 µM | 16 µM
COc1cc(-c2cc3c(c(=O)o2)C[C@]2(O)[C@@]4(C)C(=O)C=CC(C)(C)[C@]4(O)CC[C@@]2(C)O3)cc(OC)c1OC [TERRITREM B] | 14 µM | 27 µM | 8.6 µM | 5.4 µM
